ChEMBL document CHEMBL1201862, “PubChem BioAssay data set” (2004)
Where “and” joins values, the source holds several entries; their conditions need not be identical. Equal entries are not always repeated. Calls of active or inactive are those of the source.

Assays:
[1] = molecular target: T1, Polyadenylate-binding protein 1 (Homo sapiens, UniProt P11940); assay: MLLE binding blockers, Cy5 peptide tracer – biochemical, fluorescence polarization, Cy5-PAM2 peptide, secondary, miRNA deadenylation inhibitor project, dose response (AID 602260); assay type: functional; conditions: read-out: IC50_Mean
T1 sequence (P11940 whole entry): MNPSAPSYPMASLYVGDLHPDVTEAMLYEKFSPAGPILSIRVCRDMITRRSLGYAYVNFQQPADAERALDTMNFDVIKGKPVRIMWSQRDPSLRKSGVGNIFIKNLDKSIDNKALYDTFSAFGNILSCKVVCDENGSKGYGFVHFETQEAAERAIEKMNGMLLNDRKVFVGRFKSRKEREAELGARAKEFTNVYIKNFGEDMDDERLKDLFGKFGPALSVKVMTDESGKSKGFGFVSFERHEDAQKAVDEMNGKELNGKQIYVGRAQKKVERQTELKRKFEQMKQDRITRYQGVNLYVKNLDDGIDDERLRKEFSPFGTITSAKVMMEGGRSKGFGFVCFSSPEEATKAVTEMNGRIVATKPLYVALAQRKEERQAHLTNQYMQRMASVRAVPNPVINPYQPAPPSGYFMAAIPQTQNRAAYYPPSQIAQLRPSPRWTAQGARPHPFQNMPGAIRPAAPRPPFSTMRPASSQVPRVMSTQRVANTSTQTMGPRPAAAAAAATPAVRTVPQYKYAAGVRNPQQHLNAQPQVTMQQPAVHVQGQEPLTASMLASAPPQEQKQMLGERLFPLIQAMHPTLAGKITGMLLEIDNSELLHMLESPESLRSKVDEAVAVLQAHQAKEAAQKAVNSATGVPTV

[2] = molecular target: Genome polyprotein (dengue virus type 2, UniProt P29990); assay: flavivirus cap methylation enzyme inhibition – biochemical, confirmation dose response, primary screen (AID 588689); assay type: functional
[3] = molecular target: T2, Mannose-6-phosphate isomerase (Homo sapiens, UniProt P34949); assay: MPI inhibition at elevated mannose 6-phosphate – biochemical, fluorescence intensity, high mannose 6-phosphate, primary screen (AID 1220)
T2 sequence (P34949 whole entry): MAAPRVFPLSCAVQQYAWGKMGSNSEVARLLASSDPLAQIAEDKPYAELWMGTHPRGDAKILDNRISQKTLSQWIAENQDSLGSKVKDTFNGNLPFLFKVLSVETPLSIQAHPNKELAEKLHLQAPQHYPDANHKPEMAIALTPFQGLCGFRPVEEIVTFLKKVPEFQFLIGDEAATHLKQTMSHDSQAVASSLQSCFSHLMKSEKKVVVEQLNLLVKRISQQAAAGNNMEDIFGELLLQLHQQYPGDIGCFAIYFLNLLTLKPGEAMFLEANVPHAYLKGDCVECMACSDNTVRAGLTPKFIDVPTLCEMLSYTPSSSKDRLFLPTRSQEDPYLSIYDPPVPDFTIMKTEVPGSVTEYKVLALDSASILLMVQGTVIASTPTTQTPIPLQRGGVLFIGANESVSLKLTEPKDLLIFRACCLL

[4] = molecular target: 1-acylglycerol-3-phosphate O-acyltransferase ABHD5/Perilipin-5 (Homo sapiens, UniProt Q00G26+Q8WTS1); assay: Luminescence-based biochemical high throughput dose response assay for inhibitors of the interaction of the lipase co-activator protein, abhydrolase domain containing 5 (ABHD5) with perilipin-5 (MLDP; PLIN5) (2K validation set). [Related pubchem assays (depositor defined):AID493035, AID493241]
[5] = molecular target: T1, Polyadenylate-binding protein 1; assay: MLLE domain peptide-binding blockers, IC50 – biochemical, fluorescence polarization, FITC-PAM2 peptide, dose response (AID 602259); assay type: functional; conditions: read-out: IC50_Mean
[6] = molecular target: Perilipin-1/ABHD5 (Homo sapiens, UniProt O60240+Q8WTS1); assay: Luminescence-based biochemical high throughput dose response assay for inhibitors of the interaction of the lipase co-activator protein, abhydrolase domain containing 5 (ABHD5) with perilipin-1 (PLIN1) (2K validation set). [Related pubchem assays (depositor defined):AID493027, AID493057]
Perilipin-1/ABHD5, sequence (Q8WTS1 whole entry, the tested form may be a part): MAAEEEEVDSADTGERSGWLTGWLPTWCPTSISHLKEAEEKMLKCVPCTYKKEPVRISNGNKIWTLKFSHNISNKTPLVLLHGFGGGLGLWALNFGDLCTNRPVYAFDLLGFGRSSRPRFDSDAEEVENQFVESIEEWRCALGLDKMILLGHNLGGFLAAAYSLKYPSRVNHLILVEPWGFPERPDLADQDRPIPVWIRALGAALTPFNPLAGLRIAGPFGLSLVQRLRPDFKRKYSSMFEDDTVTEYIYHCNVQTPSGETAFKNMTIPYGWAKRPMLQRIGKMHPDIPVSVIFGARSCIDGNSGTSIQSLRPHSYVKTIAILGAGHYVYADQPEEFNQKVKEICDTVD
Perilipin-1/ABHD5, sequence (O60240 whole entry, the tested form may be a part): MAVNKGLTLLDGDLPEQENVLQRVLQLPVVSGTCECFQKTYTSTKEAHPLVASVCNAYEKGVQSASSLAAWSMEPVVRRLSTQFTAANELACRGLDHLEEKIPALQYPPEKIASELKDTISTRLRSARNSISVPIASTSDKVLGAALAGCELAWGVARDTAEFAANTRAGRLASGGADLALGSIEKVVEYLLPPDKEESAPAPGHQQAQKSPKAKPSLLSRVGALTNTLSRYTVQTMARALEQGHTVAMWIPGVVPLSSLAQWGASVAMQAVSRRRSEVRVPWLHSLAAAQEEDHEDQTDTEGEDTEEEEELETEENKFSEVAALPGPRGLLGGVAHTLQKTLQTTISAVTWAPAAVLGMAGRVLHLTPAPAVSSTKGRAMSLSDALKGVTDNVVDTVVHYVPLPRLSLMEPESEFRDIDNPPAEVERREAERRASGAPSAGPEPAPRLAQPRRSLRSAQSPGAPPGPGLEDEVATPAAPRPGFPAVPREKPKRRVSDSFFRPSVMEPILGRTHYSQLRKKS

[7] = molecular target: T3, Alkaline phosphatase, tissue-nonspecific isozyme (Homo sapiens, UniProt P05186); assay: potency against alkaline phosphatase TNAP – biochemical, luminescent, dose response, SAR follow-up (AID 1056)
T3 sequence (P05186 whole entry): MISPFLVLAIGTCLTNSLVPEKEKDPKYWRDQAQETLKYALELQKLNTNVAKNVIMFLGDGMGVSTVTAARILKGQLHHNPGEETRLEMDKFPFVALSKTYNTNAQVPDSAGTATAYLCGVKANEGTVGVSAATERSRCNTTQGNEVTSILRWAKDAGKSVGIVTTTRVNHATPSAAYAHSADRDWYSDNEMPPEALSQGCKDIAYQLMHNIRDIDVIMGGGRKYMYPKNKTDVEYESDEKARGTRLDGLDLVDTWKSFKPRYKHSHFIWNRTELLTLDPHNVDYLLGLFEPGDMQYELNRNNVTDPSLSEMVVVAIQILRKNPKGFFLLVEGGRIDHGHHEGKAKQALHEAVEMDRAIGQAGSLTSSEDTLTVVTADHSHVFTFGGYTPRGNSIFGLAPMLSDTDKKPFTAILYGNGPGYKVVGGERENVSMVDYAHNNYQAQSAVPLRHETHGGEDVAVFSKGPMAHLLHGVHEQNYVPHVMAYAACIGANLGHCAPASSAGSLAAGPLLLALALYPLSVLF

[8] = molecular target: Alkaline phosphatase, placental type (Homo sapiens, UniProt P05187); assay: human placental alkaline phosphatase inhibition – biochemical, luminescence, confirmation (AID 1512); assay type: functional
Alkaline phosphatase, placental type, sequence (P05187 whole entry, the tested form may be a part): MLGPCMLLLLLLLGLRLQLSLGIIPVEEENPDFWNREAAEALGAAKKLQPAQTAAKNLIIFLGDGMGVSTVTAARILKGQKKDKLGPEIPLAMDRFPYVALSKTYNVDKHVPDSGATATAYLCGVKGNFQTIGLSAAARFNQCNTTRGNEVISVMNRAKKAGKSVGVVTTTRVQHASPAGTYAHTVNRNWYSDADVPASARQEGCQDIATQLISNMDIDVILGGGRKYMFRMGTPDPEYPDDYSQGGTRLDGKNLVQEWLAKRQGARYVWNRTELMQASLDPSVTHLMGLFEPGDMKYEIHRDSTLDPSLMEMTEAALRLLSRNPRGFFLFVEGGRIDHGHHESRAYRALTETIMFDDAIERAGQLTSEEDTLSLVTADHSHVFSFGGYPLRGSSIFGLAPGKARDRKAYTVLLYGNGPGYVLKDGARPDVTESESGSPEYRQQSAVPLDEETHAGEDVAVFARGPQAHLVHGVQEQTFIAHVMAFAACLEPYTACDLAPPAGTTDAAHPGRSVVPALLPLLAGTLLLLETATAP

[9] = molecular target: Type-1 angiotensin II receptor (Homo sapiens, UniProt P30556); assay: agonist activity at AGTR1 – cell-based, uHTS hits, selectivity assay for APJ receptor agonist project, dose response (AID 488865); assay type: functional;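 further: beta-arrestin recruitment to AT1 measured by enzyme fragment complementation luminescence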
Type-1 angiotensin II receptor, sequence (P30556 whole entry, the tested form may be a part): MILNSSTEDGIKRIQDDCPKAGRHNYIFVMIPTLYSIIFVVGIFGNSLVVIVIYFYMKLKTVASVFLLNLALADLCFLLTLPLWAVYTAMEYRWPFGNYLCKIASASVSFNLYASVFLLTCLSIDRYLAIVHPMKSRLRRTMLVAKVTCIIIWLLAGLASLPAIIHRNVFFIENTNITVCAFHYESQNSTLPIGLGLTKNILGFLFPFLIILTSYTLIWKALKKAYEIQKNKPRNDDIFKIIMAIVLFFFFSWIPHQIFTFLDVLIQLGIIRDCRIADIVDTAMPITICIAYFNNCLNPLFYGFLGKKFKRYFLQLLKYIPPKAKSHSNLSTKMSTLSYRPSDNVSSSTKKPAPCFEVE

[10] = molecular target: Low molecular weight phosphotyrosine protein phosphatase (Homo sapiens, UniProt P24666); assay type: functional; conditions: read-out: IC50_Mean;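 further: Dose-response confirmation assay measuring inhibition of LMPTP enzyme activity by fluorescence intensity read-out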
Low molecular weight phosphotyrosine protein phosphatase, sequence (P24666 whole entry): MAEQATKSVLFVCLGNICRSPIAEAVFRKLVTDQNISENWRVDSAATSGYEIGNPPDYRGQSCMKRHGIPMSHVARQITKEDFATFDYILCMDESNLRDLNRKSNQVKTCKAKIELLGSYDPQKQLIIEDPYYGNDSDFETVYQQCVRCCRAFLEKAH

[11] = molecular target: DNA dC->dU-editing enzyme APOBEC-3G (Homo sapiens, UniProt Q9HC16); assay type: functional;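 further: Dose-response counterscreen measuring inhibition of APOBEC3G DNA deaminase activity, run while confirming APOBEC3A inhibitors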
DNA dC->dU-editing enzyme APOBEC-3G, sequence (Q9HC16 whole entry): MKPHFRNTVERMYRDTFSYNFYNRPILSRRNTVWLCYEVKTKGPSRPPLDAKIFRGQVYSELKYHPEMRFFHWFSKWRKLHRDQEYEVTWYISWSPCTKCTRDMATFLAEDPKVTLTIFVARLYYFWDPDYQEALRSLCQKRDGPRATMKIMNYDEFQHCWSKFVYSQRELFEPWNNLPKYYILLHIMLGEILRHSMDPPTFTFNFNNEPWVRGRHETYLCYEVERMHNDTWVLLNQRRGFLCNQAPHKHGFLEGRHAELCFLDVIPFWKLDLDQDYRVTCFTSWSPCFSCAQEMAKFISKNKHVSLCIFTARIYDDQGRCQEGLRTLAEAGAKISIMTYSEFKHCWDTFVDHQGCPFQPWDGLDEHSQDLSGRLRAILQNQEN

[12] = molecular target: DNA dC->dU-editing enzyme APOBEC-3A (Homo sapiens, UniProt P31941); assay: Dose Response confirmation of small molecule APOBEC3A DNA Deaminase Inhibitors via a fluorescence-based single-stranded DNA deaminase assay. [Related pubchem assays (depositor defined):AID493011, AID493024]; assay type: functional
DNA dC->dU-editing enzyme APOBEC-3A, sequence (P31941 whole entry): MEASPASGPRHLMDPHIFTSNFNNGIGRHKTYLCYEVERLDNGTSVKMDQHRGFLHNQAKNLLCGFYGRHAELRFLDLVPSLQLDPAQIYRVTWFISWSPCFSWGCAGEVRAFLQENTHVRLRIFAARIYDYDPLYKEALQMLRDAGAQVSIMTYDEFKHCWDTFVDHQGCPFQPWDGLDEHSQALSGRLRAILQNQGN

[13] = THP-1 cell cytotoxicity, dose response, cytotoxicity control for non-replicating M. tuberculosis project (AID 489025); assay type: functional
[14] = HepG2 cell cytotoxicity, dose response, cytotoxicity control for non-replicating M. tuberculosis project (AID 489018); assay type: functional; conditions: Mycobacterium tuberculosis
[15] = Vero E6 cell cytotoxicity, dose response, cytotoxicity control for non-replicating M. tuberculosis project, secondary assay (AID 492998); assay type: functional, VeroE6; conditions: Vero C1008
[16] = cells; assay type: functional
[17] = microbe, parasite or virus in culture; assay type: functional; conditions: Mycobacterium tuberculosis
[18] = molecular target: T4, Runt-related transcription factor 1/Core-binding factor subunit beta (Homo sapiens, UniProt Q01196+Q13951); assay: disruptors of Runt domain/CBFb-SMMHC interaction – biochemical, FRET, Cerulean-Runt, Venus-CBFb-SMMHC, uHTS, […] (AID 1434); assay type: protein assay
T4 sequence (Q01196 whole entry, the tested form may be a part): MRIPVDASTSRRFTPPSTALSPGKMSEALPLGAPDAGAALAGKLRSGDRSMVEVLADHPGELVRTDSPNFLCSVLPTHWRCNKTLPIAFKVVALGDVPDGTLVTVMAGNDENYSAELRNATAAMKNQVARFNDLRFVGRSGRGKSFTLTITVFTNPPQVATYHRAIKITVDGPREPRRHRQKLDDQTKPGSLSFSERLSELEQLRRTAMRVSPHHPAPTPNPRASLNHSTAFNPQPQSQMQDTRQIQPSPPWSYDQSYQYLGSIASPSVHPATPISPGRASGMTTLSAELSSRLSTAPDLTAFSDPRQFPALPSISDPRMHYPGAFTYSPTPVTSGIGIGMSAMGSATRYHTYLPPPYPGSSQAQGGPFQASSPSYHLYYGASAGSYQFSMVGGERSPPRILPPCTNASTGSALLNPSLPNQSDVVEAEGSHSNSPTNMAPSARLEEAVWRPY
T4 sequence (Q13951 whole entry, the tested form may be a part): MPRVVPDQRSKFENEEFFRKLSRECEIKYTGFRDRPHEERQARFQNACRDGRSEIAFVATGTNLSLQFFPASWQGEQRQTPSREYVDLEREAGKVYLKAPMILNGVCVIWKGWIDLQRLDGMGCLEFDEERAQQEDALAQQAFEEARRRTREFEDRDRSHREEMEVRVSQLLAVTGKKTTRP

[19] = molecular target: T4, Runt-related transcription factor 1/Core-binding factor subunit beta; assay: Runt domain/CBFb-SMMHC interaction disruptors – biochemical, TR-FRET (AID 1438); assay type: protein assay
[20] = molecular target: T5, Kappa-type opioid receptor (Homo sapiens, UniProt P41145); assay: SAR analysis of Antagonists of the Kappa Opioid Receptor (KOR) using an Image-Based Assay - Set 3. [Related pubchem assays (depositor defined):AID1777, AID1785]; assay type: functional
T5 sequence (P41145 whole entry): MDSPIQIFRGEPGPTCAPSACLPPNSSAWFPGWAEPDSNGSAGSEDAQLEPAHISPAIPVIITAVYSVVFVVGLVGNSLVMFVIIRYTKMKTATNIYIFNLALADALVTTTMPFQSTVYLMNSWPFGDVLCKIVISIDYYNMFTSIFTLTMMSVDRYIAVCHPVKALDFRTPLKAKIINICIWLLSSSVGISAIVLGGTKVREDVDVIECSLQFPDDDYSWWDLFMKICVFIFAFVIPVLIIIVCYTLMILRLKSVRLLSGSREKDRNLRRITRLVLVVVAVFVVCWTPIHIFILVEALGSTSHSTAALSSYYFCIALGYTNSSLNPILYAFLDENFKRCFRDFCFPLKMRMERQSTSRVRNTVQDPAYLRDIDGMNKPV

[21] = molecular target: Delta-type opioid receptor (Homo sapiens, UniProt P41143); assay: SAR Analysis of Antagonists of the DOR Receptor using an Image-Based Assay - Set 3. [Related pubchem assays (depositor defined):AID1777, AID1785]; assay type: functional;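 further: U2OS cells expressing DOR1 and beta-arrestin GFP stimulated with 100 nM SNC80; imaging of GFP-tagged beta-arrestin moving into spots after receptor activation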
Delta-type opioid receptor, sequence (P41143 whole entry): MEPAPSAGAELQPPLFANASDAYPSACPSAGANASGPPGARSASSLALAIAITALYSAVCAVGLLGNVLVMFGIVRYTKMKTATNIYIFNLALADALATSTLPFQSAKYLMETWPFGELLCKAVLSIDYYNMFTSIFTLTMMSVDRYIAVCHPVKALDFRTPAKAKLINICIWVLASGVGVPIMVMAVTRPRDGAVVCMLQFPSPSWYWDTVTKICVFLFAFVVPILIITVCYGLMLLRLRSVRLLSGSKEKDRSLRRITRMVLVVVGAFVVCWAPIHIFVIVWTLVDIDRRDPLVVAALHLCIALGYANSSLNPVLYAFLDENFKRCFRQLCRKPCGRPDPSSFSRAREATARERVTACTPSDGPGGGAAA

[22] = molecular target: Mu-type opioid receptor (Homo sapiens, UniProt P35372); assay: SAR Analysis of Antagonists of the MOR Receptor using an Image-Based Assay - Set 3. [Related pubchem assays (depositor defined):AID1777, AID1785, AID1786, AID1966, AID2133, AID2136, AID2284, AID2285, AID2420]; assay type: functional
[23] = molecular target: T5, Kappa-type opioid receptor; assay: SAR analysis of small molecule antagonists of the kappa opioid receptor via a luminescent beta-arrestin assay - Set 3. [Related pubchem assays (depositor defined):AID1777, AID1778, AID1785, AID1786, AID1966, AID2133, AID2136, AID2285, AID2495]; assay type: functional

## COc1cc(/C=C2\C(=O)NC(=O)N(c3ccccc3)C2=O)c([N+](=O)[O-])cc1OC
[1]
  IC50: 53.9 µM (inactive)
[2]
  IC50: 17.3 µM (active)
[3]
  IC50: > 50 µM (not active)
[4]
  IC50: 3.41 µM (active)
[5]
  IC50: 42.8 µM (inactive)
[6]
  IC50: 3.29 µM (active)

## COC(=O)c1cc(-c2c[nH]c3ccccc23)[nH]n1
[7]
  IC50: 1.67 µM (active) and 906 nM (active)
[8]
  IC50: > 100 µM (inactive)

## COc1cc2c(cc1NC(=O)c1cccc([N+](=O)[O-])c1)oc1ccccc12
[9]
  EC50: > 100 µM (inactive)
[10]
  IC50: 14.2 µM (active)

## Cc1nc(O)c(C#N)c(C)c1CCC(=O)Nc1cc(S(C)(=O)=O)ccc1Cl
[11]
  IC50: 11.7 µM (active)
[12]
  IC50: 9.97 µM (active)

## COc1cccc(-c2nnc(NC(=O)c3ccc(S(=O)(=O)N4CCOCC4)cc3)o2)c1
[13]
  CC50: 8.51 µM (active)
[14]
  CC50: 13.9 µM (active)
[15]
  CC50: 7.2 µM (active)
[16]
  IC50: 22.8 µM (active)
[17]
  CC50: 19.7 µM (active)

## Cc1cc(C)cc(Oc2nc3c(C)cccn3c(=O)c2/C=C(\C#N)C(=O)NC2CCS(=O)(=O)C2)c1 (stereo not drawn)
[18]
  IC50: 4.95 µM (active)
[19]
  IC50: 68 µM (inactive)

## O=C(Cn1c(=O)c2cccn2c2ccc(F)cc21)NCCCN1CCN(c2ccc(F)cc2)CC1
[20]
  IC50: 14.6 µM (inactive)
[21]
  IC50: > 32 µM (inactive)
[22]
  IC50: > 32 µM (inactive)
[23]
  IC50: > 20 µM (inactive)
